Results from ChEMBL document CHEMBL5620351, “Advancing beyond reverse transcriptase inhibitors: The new era of hepatitis B polymerase inhibitors” (Eur J Med Chem, 2023).

Key:
HepG2 [1] = experiment: Cytotoxicity against human HepG2 cells assessed as cell viability incubated for 12 days by WST-1 assay; format: functional; settings: HepG2, 288 h, time 12 day
Hepatitis B virus [2] = experiment: Antiviral activity against HBV infected in human HepG2 2.2.15 cells assessed as reduction in intracellular DNA level; format: functional, organism-based
Hepatitis B virus [3] = experiment: Antiviral activity against HBV infected in human HepG2 2.2.15 cells assessed as reduction in extracellular DNA level; format: functional, organism-based
HepG2 2.2.15 = experiment: Cytotoxicity against human HepG2 2.2.15 cells assessed as cell viability incubated for 12 days by WST-1 assay; format: functional; settings: HepG2 2.2.15, 288 h, time 12 day
Hepatitis B virus [4] = experiment: Antiviral activity against HBV infected in human HepDES19 cells assessed as inhibition of HBV replication by qPCR analysis; format: functional, organism-based
Hepatitis B virus [5] = experiment: Antiviral activity against HBV infected in human HepDES19 cells assessed as reduction in HBV replication; format: functional, organism-based
Hepatitis B virus [6] = experiment: Antiviral activity against HBV infected in human HepG2 2.2.15 cells assessed as reduction on HBsAg level incubated for 5 days; format: functional; parameters: concentration or dose not given beside the values; settings: time 5 day
Hepatitis B virus [7] = experiment: Antiviral activity against HBV infected in human HepG2.2.15.7 cells assessed as reduction in HBV DNA replication by TR-PCR analysis; format: functional, organism-based
Hepatitis B virus [8] = experiment: Antiviral activity against wild type HBV infected in human HepG2 cells assessed as reduction in HBV DNA replication by RT-PCR analysis; format: functional, organism-based
Hepatitis B virus [9] = experiment: Antiviral activity against lamivudine-resistant HBV infected in human HepG2 cells assessed as reduction in HBV DNA replication by RT-PCR analysis; format: functional, organism-based
Hepatitis B virus [10] = experiment: Antiviral activity against HBV infected in human Hep38.7-TeT cells assessed as inhibition of extracellular HBV DNA by real-time qPCR analysis; format: functional, organism-based
Hepatitis B virus [11] = experiment: Antiviral activity against HBV D1 infected in human HepG2.2.15 cells assessed as reduction in HBV DNA production by real-time qPCR analysis; format: functional, organism-based; settings: D1, HepG2.2.15
Hepatitis B virus [12] = experiment: Antiviral activity against HBV C2 infected in human Huh-7 cells assessed as reduction in HBV DNA production by real-time qPCR analysis; format: functional, organism-based; settings: C2, Huh-7
Hepatitis B virus [13] = experiment: Antiviral activity against entecavir-resistant HBV infected in human Huh-7 cells assessed as reduction in HBV DNA production by real-time qPCR analysis; format: functional, organism-based
Hepatitis B virus [14] = experiment: Antiviral activity against adefovir-resistant HBV infected in human Huh-7 cells assessed as reduction in HBV DNA production by real-time qPCR analysis; format: functional, organism-based
Huh-7 [15] = experiment: Cytotoxicity against human Huh-7 cells assessed as reduction in cell viability by MTT assay; format: functional
Hepatitis B virus [16] = experiment: Antiviral activity against HBV infected in human HepG2-NTCP12 cells assessed as inhibition of extracellular HBV DNA incubated for 2 weeks by SYBR green dye based quantitative PCR analysis; format: functional, organism-based; settings: HepG2-NTCP12, 336 h
[17] = Cytotoxicity against human primary hepatocytes assessed as cell viability incubated for 72 hrs by MTS assay; format: toxicity, cell-based, Hepatocyte
[18] = Cytotoxicity against human primary hepatocytes assessed as cell viability incubated for 72 hrs by LDH release assay; format: toxicity, cell-based, Hepatocyte
HepG2 [19] = experiment: Cytotoxicity against human HepG2 cells assessed as reduction in cell viability by MTS assay; format: functional
HepG2 [20] = experiment: Cytotoxicity against human HepG2 cells assessed as reduction in cell viability in presence of lamivudine by MTS assay; format: functional
[21] = Inhibition of HBV RNA polymerase; parameters: species or system Hepatitis B virus
Hepatitis B virus [22] = experiment: Antiviral activity against HBV transfected in human HB611 cells assessed as reduction of HBV DNA replication incubated for 5 days by q-PCR analysis; format: functional, organism-based; settings: HB611, 120 h
Hepatitis B virus [23] = experiment: Antiviral activity against HBV transfected in human HB611 cells; format: functional, organism-based
[24] = Cytotoxicity against human HB611 cells assessed as reduction in cell viability incubated for 6 to 9 days by celltiter-glo assay; format: functional; settings: time 6-9 day
Huh-7 [25] = experiment: Cytotoxicity against human Huh-7 cells assessed as reduction in cell viability by Neutral Red staining based assay; format: functional
Huh-7 [26] = experiment: Cytotoxicity against human Huh-7 cells assessed as reduction in cell viability by LDH release assay; format: functional
Hepatitis B virus [27] = experiment: Antiviral activity against HBV infected in human HePAD38 cells assessed as reduction in of intracellular HBV DNA incubated for 5 days by Southern blotting analysis; format: functional, organism-based; settings: HePAD38, 120 h
Hepatitis B virus [28] = experiment: Antiviral activity against lamivudine resistant HBV infected in human HepG2 cells assessed as reduction in of intracellular HBV DNA incubated for 5 days by Southern blotting analysis; format: functional, organism-based; settings: HepG2, 120 h
Hepatitis B virus [29] = experiment: Antiviral activity against adefovir-resistant HBV infected in human HepG2 cells assessed as reduction in of intracellular HBV DNA incubated for 5 days by Southern blotting analysis; format: functional, organism-based; settings: HepG2, 120 h

O=C(/C=C/c1ccc(O)c(O)c1/C=C/c1ccc(O)c(O)c1)O[C@H](Cc1ccc(O)c(O)c1)C(=O)O [SALVIANOLIC ACID A]
CC50 (HepG2 [1]): 86 µM

C=CCNc1nc(N)c(/C(N)=N\C#N)s1
EC50 (Hepatitis B virus [2]): 740 nM | EC50 (Hepatitis B virus [3]): 480 nM | CC50 (HepG2 2.2.15): 7.2 µM

C/C(=N\c1ccccc1N)c1c(C)cc(=O)n(O)c1O
EC50 (Hepatitis B virus [4]): 690 nM | EC50 (Hepatitis B virus [5]): 110 nM

O=c1ccc2cc3ccoc3cc2o1 [PSORALEN]
Activity (Hepatitis B virus [6]): 62%

O=C(CCc1ccc(O)c(O)c1)OCCc1ccc(O)c(O)c1
CC50 (HepG2 [1]): 229 µM

Clc1ccc(/C=C/c2cc(Cl)cc(Cl)c2)cc1
EC50 (Hepatitis B virus [7]): 14.4 µM | EC50 (Hepatitis B virus [8]): 13.3 µM | EC50 (Hepatitis B virus [9]): 16.4 µM

Oc1cc(O)cc(/C=C/c2ccc(O)c(O)c2)c1 [PICEATANNOL]
EC50 (Hepatitis B virus [7]): 96.2 µM

COc1ccc2c(c1)C(=O)N(O)C(=O)C2C(=O)NCc1ccc(F)cc1 (configuration not stated)
EC50 (Hepatitis B virus [4]): 690 nM

O=C(/C=C/c1ccc(O)c(O)c1)O[C@H](Cc1ccc(O)c(O)c1)C(=O)O [ROSMARINIC ACID]
EC50 (Hepatitis B virus [10]): 30 µM

N#C[C@]1(CO)/C(=C\F)[C@@H](n2cnc3c(=O)[nH]c(N)nc32)C[C@@H]1O
IC50 (Hepatitis B virus [11]): 1800 nM | IC50 (Hepatitis B virus [12]): 700 nM | IC50 (Hepatitis B virus [13]): 77.5 µM | IC50 (Hepatitis B virus [14]): 14.1 µM | CC50 (Huh-7 [15]): 169 µM

COC(=O)C1C(=O)N(O)C(=O)c2cc(NC(=O)c3ccccc3)ccc21 (configuration not stated)
EC50 (Hepatitis B virus [5]): 2400 nM

CC(=NOCc1ccc(C)cc1)c1c(C)cc(=O)n(O)c1O
EC50 (Hepatitis B virus [5]): 110 nM

Cc1c(O)c2cc(Br)cnc2n(O)c1=O
EC50 (Hepatitis B virus [16]): 49 nM | CC50 at 72 h [17]: > 100 µM | CC50 at 72 h [18]: > 100 µM

O=C1Cc2ccccc2C(=O)N1O
EC50 (Hepatitis B virus [4]): 690 nM | CC50 (HepG2 [19]): > 100 µM | CC50 (HepG2 [20]): > 100 µM

NC(=O)C(Cc1ccc(O)c(O)c1)OC(=O)/C=C/c1ccc(O)c(O)c1 (configuration not stated)
CC50 (HepG2 [1]): 229 µM

O=C(Nc1ccccc1)C1C(=O)N(O)C(=O)c2ccccc21 (configuration not stated)
EC50 (Hepatitis B virus [4]): 690 nM

COc1ccc(CON=C(C)c2c(C)cc(=O)n(O)c2O)cc1
EC50 (Hepatitis B virus [5]): 110 nM

CC(=NOc1ccccc1)c1c(C)cc(=O)n(O)c1O
EC50 (Hepatitis B virus [5]): 110 nM

O=C(NCc1ccccc1)C1C(=O)N(O)C(=O)c2ccccc21 (configuration not stated)
EC50 (Hepatitis B virus [4]): 690 nM

CCNC(=O)C1C(=O)N(O)C(=O)c2ccc(OC)nc21 (configuration not stated)
EC50 (Hepatitis B virus [5]): 2400 nM

O=c1c(O)c(-c2ccc(O)c(O)c2)oc2cc(O)cc(O)c12 [QUERCETIN]
Activity (Hepatitis B virus [6]): 62%

COC(=O)C1C(=O)N(O)C(=O)c2ccccc21 (configuration not stated)
EC50 (Hepatitis B virus [4]): 690 nM

NC(Cc1cc(O)c(O)cc1O)C(=O)O (configuration not stated)
IC50 [21]: 6.6 µM | IC50 (Hepatitis B virus [22]): 21 µM | EC50 (Hepatitis B virus [23]): 16.1 µM | CC50 [24]: 66 µM

C/C=C(\C)C(=O)O[C@H]1C[C@@H](OC(C)=O)[C@@]2(C(=O)OC)CO[C@H]3[C@@H](O)[C@@](C)([C@]45O[C@@]4(C)[C@H]4C[C@@H]5O[C@@H]5OC=C[C@@]54O)[C@H]4[C@]1(CO[C@]4(O)C(=O)OC)[C@@H]32 [AZADIRACTIN]
Activity (Hepatitis B virus [6]): 62%

Nc1nc(O)c2ncn([C@H]3CC[C@@H](CO)O3)c2n1
CC50 (Huh-7 [25]): 26 µM | CC50 (Huh-7 [26]): 97 µM | EC50 (Hepatitis B virus [27]): 300 nM | EC50 (Hepatitis B virus [28]): 890 nM | EC50 (Hepatitis B virus [29]): 660 nM

CC(=NOCc1ccccc1)c1c(C)cc(=O)n(O)c1O
EC50 (Hepatitis B virus [5]): 110 nM

O=C(/C=C/c1ccc(O)c(O)c1)NCCc1ccc(O)c(O)c1
CC50 (HepG2 [1]): 229 µM
